Source: US20110117055A1, “Methods of Treating Hepatitis C Virus with Oxoacetamide Compounds” (priority 2009, published 2011)
“Also recorded” adds a separate entry of the source. Read-outs that look alike come from different tables or passages of the source.

Tests used:
[1] = system: HCV2aChLuc virus; assay: In vitro HCVcc entry assay: HCV2aChLuc virus infection of Huh7 cells, Renilla luciferase read-out; format: cell-based, HCV genotype 2a; conditions: for IC50: Hepatitis C virus
[2] = system: HCV genotype 1b subgenomic replicon; assay: HCV replicon assay (HCV1b replicon cells, NS5A ELISA); format: cell-based; conditions: 3 days
Experimental: Alternatively, Hut1b cells (Huh7 cells stably replicating HCV genotype 1b subgenomic replicon) were treated with serial dilutions of the test compound for 72 hours. Replication efficiency was monitored by ELISA assay using anti-HCV NS5A monoclonal antibody (Virogen).
Increasing amounts of compound were inoculated onto HCV1b replicon cells and incubated for 3 days. Following incubation, HCV replication was monitored with NS5A protein expression by ELISA.

[3] = system: HCV; assay: Combination of viral entry inhibitor with IFN-α, HCVcc infection system, luciferase assay; format: cell-based; conditions: Huh7 cells, 72 hrs
Experimental: The current standard of care for the treatment of chronic hepatitis C is the combination of pegylated IFN-α (interferon-alpha) and ribavirin. […] Huh7 cells were incubated with various concentrations of Compound 1 or interferon alone, or combinations of both for 72 hrs, and the anti-HCV activity was measured by luciferase assays. The same was experiment was performed for Compound 5.

[4] = system: HCV1a chimeric virus and 2a chimeric virus; assay: Combination of viral entry inhibitor with ribavirin; format: cell-based, HCV; conditions: ribavirin 15 μM
Experimental: Varying amounts of each compound were coincubated with a high concentration of ribavirin (15 μM).

[5] = system: HCV2aCh (E2:G451R) mutant virus; assay: E2:G451R mutant virus, immuno-fluorescence read-out; format: cell-based, HCV genotype 2a
Experimental: IF analysis: Following aspiration of supernatant from a 24-well plate, 1 ml of ice cold methanol was added to each well and the plate was stored overnight at −20° C. The following day, methanol was removed and the plates were air-dried at room temperature for about 30 minutes. The plate was then rinsed/rehydrated with two washes of PBS (˜5 minutes/wash). To block non-specific antibody binding, cells were incubated in blocking buffer (1% BSA, 0.2% skim milk in PBS) for 1 hour at room temperature. Primary antibody (mouse anti-HCV Core; Affinity BioReagents, MA1-080) was diluted 1:1000 in PBS+0.1% Tween-20 and incubated overnight at 4° C. on rocker (˜200 μl of antibody/well). The next day, wells were washed with PBS (three washes of 5 minutes each) and then incubated for 30 minutes at room temperature with a secondary antibody: goat anti-mouse_AlexaFluor488 (1:1000 dilution in PBS/Tween; Molecular Probes/Invitrogen #A11001). The cells were then washed with PBS three times (5 minutes each), including once with Hoechst dye (0.4 ug/ml; Molecular Probes/Invitrogen #H3570) to counterstain the nuclei of cells. Immunofluorescence staining was analyzed using 10× objective on a Zeiss fluorescent microscope.

[6] = system: Jc1-luc virus; assay: Luciferase compound activity assay, Jc1-luc virus in Huh7.5.1 cells; format: cell-based, HCV genotype-2a; conditions: Hepatitis C virus, Huh-7.5.1
Experimental: Cell culture. Human hepatoma Huh-7.5.1 cells or Huh7 cells were grown at 37° C. and 5% CO2 in Dulbecco's modification of Eagle's medium supplemented with 2 mM L-glutamine, 1 mM Sodium pyruvate, 1× Non-essential amino acids mix, 100 units/ml penicillin, 100 μg/ml streptomycin, and 10% fetal bovine serum.
Virus plasmids. The chimeric full-length construct pFL-JC1, a GT2a/2a chimera consisting of structural genes from the J6CF isolate and non-structural genes from the JFH1 isolate, has been described previously. See Backes et al., J. Virol. 2010, 84:5775-89; Schaller et al., J. Virol., 2007, 81:4591-603; Koutsoudakis et al., J. Virol. 2006, 80:5308-20; Pietschmann et al., Proc. Natl. Acad. Sci., 2006, 103:7408-13. The firefly luciferase gene has been inserted to pFL-Jc1 to develop a plamid pFL-Jc1-luc for use as a reporter of viral replication. See Amako et al., J. Virol. 2009, 83:9237-46. Specifically, the pFL-JC1-luc construct can be utilized to develop an infectious HCV cell culture system to test novel HCV inhibitors, including entry inhibitors, in vitro using luciferase expression.
Preparation of infectious HCV. Jc1-luc or HCV2a/2aChRluc RNA was in vitro transcribed using T7 RiboMAX™ Express Large Scale RNA Production System (Promega). After RNA clean up (Qiagen RNeasy Mini kit), transfection was performed as previously described.
400 microliters of a Huh-7.5.1 or Huh7 cell suspension (10^7 cells/ml) was placed in a 0.4-cm cuvette with 10 μg of Jc1-luc or HCV2a/2aChRluc RNA and electroporated (Bio-Rad Gene Pulser System) using a single square wave at 260 V and 25 ms pulse length. The cells were plated in 15-cm tissue culture dishes (Corning) and supernatant was harvested and concentrated using a centrifugal filter (Amicon 100K, Millipore).
Luciferase compound activity assay. Cell culture and luciferase compound assays were performed as previously described. See Wyles et al., J. Virol. 2007, 81:3005-8; Wyles et al., Antimicrob Agents Chemother. 2009, 53:2660-2; Grünberger et al., J. Infect. Dis. 2008, 197:42-5; Wyles et al., Antimicrob Agents Chemother, 2008, 52:1862-4. Briefly, Huh7.5.1 cells were seeded into 96-well plates at a density of 10,000 cells per well in 100 μl medium. After incubating overnight for attachment, Jc1-luc virus at an MOI 0.01 was added to wells with or without compounds at the specified concentrations. All conditions were run in triplicate. After 24 hours, medium was aspirated and replaced with 100 μl of complete medium containing an identical concentration of compound(s) followed by additional 48 hour incubation. The luciferase assay (Bright-Glo; Promega) was carried out according to the manufacturer's instructions. Luciferase activity was determined using a microplate luminometer (Veritas microplate luminometer; Turner Biosystems). […]

[7] = Cytotoxicity of anti-HCV compounds (CC50, Table 4); conditions: human, Huh7.5.1 cells

Compound: COc1c(NC(=O)C(=O)c2ccc(OCCN3CCOCC3)c3ccccc23)cc(C(C)(C)C)cc1NS(C)(=O)=O [Compound 5, N-(5-tert-butyl-2-methoxy-3-(methylsulfonamido)phenyl)-2-(4-(2-morpholinoethoxy)naphthalen-1-yl)-2-oxoacetamide]
- IC50 ([1]; Huh-7, 72 h, read-out: observed IC50, Huh7 cells co-incubated with HCV2aChRluc virus and compound for 3 days, repeated assays (n>30)): 0.05 to 0.5 nM
- IC50 ([1]; Huh-7, read-out: Activity class (IC50), tested according to the method of Example 3): < 5 nM
- inhibitory effect on HCV2aChLuc viral entry ([1]; Huh7 cells, 3 days): dose-dependent inhibitory effect; also recorded: dose-dependent inhibition
- effect on HCV replication (NS5A protein expression by ELISA) [2]: did not measurably inhibit; also recorded: no measurable effect
- effect of combination with IFN-α on inhibition of HCV infection in cell culture [3]: additive to moderate synergistic effect
- effect of combination with ribavirin [4]: no antagonistic effect
- sensitivity of E2 mutant relative to wild-type virus, immuno-fluorescence [5]: more resistant
- EC50 [6]: 20.2 ± 1.37 nM
- CC50 [7]: > 100000 nM
